Eleven compounds from patent publication US7378375B1, “Substituted pyridine herbicides” (Syngenta Crop Protection, Inc., priority 2000, dated 2008) can be followed below.

For test [1], the system named is Monocotyledonous and dicotyledonous test plants. As to the kind of experiment: Herbicidal action before emergence of the plants (pre-emergence action), greenhouse pot test, 9-level rating after 4 weeks. To be noted: 250 g/ha, rated after 4 weeks, 9-level scale. In kind it is in vivo. More on the design: key: 9-level scale: 1 = complete damage, 9 = no effect. The procedure, abridged:
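Compounds applied pre-emergence as a spray (500 l water/ha) of aqueous suspension or emulsion onto soil immediately after sowing mono- and dicot species in pots. Greenhouse-grown; damage rated after 4 weeks on a 9-level scale (1=complete damage, 9=no effect).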

Test [2] shares this test system. Kind of test: Post-emergence herbicidal action, greenhouse pot test, sprayed at the 2- to 3-leaf stage, 9-level rating after 2 to 3 weeks. As to conditions: 250 g/ha, rated after 2 to 3 weeks, 9-level scale. The test is classed as in vivo. More on the design: key: 9-level scale: 1 = complete damage, 9 = no effect. The gist of the method: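 Plants grown in standard soil in pots; test substances sprayed at the 2- to 3-leaf stage at optimum dosage (500 l water/ha) as aqueous suspension or emulsion from formulated concentrates. Plants then kept in the greenhouse under optimum conditions; rated after 2 to 3 weeks on a 9-level scale (1=complete damage, 9=no effect).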

Consider `CC(C)OCc1nc(C(F)(F)F)ccc1C(=O)c1cnn(C)c1O` [A3-C5], for which, in test [1], the “Pre-emergence action rating, Abutilon” value came out at 1; the “Pre-emergence action rating, Amaranthus” value was determined as 1; the “Pre-emergence action rating, Digitaria” value stood at 2; the “Pre-emergence action rating, Echino.” value came out at 2. In addition, in test [1], the “Pre-emergence action rating, Panicum” value is on record as 1. Moreover, in test [2], the “Post-emergence action rating, Abutilon” value is reported as 3; the “Post-emergence action rating, Amaranth” value worked out at 3; the “Post-emergence action rating, Chenop.” value is recorded as 1; the “Post-emergence action rating, Digitaria” value came out at 4. Besides, in test [2], the “Post-emergence action rating, Echino.” value turned out to be 3; the “Post-emergence action rating, Ipopur.” value came to 3; the “Post-emergence action rating, Panicum” value is reported as 3; the “Post-emergence action rating, Xanth.” value was found to be 3.
As for `COCc1nc(C(F)(F)F)ccc1C(=O)c1cnn(C)c1O` [A1-C5], in test [1], the “Pre-emergence action rating, Abutilon” value was 2; the “Pre-emergence action rating, Amaranthus” value was found to be 2; the “Pre-emergence action rating, Chenop.” value is listed as 1; the “Pre-emergence action rating, Digitaria” value came to 2. Also, in test [1], the “Pre-emergence action rating, Echino.” value is listed as 1 and the “Pre-emergence action rating, Panicum” value is on record as 2. In test [2], the “Post-emergence action rating, Abutilon” value is 2; the “Post-emergence action rating, Amaranth” value was 2; the “Post-emergence action rating, Chenop.” value is on record as 1; the “Post-emergence action rating, Digitaria” value is on record as 2. In test [2], the “Post-emergence action rating, Echino.” value worked out at 2; the “Post-emergence action rating, Ipopur.” value was determined as 2; the “Post-emergence action rating, Panicum” value is on record as 4; the “Post-emergence action rating, Xanth.” value came out at 4.
Turning to `O=C(C1=C(O)C2CCC(C2)C1=O)c1ccc(C(F)(F)F)nc1COCCOCC(F)(F)F` (stereo not drawn) [A845-B52], in test [1], the “Pre-emergence action rating, Abutilon” value is on record as 1; the “Pre-emergence action rating, Amaranthus” value is reported as 1; the “Pre-emergence action rating, Chenop.” value came to 1; the “Pre-emergence action rating, Digitaria” value amounted to 1. Besides, in test [1], the “Pre-emergence action rating, Echino.” value stood at 1 and the “Pre-emergence action rating, Panicum” value is given as 1. Also, in test [2], the “Post-emergence action rating, Abutilon” value amounted to 2; the “Post-emergence action rating, Amaranth” value is listed as 2; the “Post-emergence action rating, Chenop.” value is listed as 1; the “Post-emergence action rating, Digitaria” value amounted to 2. In test [2], the “Post-emergence action rating, Echino.” value was 2; the “Post-emergence action rating, Ipopur.” value stood at 2; the “Post-emergence action rating, Panicum” value worked out at 2; the “Post-emergence action rating, Xanth.” value was found to be 2.
Consider `C=CCOCCOCc1nc(C(F)(F)F)ccc1C(=O)C1=C(O)C2CCC(C2)C1=O` (stereo not drawn) [A840-B52], for which, in test [1], the “Pre-emergence action rating, Abutilon” value turned out to be 2; the “Pre-emergence action rating, Amaranthus” value is reported as 2; the “Pre-emergence action rating, Chenop.” value is given as 1; the “Pre-emergence action rating, Digitaria” value came out at 2. In test [1], the “Pre-emergence action rating, Echino.” value worked out at 2 and the “Pre-emergence action rating, Panicum” value was 1. Also, in test [2], the “Post-emergence action rating, Abutilon” value is on record as 3; the “Post-emergence action rating, Amaranth” value is 2; the “Post-emergence action rating, Chenop.” value was 1; the “Post-emergence action rating, Digitaria” value came to 3. Besides, in test [2], the “Post-emergence action rating, Echino.” value turned out to be 4; the “Post-emergence action rating, Ipopur.” value is reported as 3; the “Post-emergence action rating, Panicum” value is listed as 2; the “Post-emergence action rating, Xanth.” value came to 3.
For the compound `O=C(C1=C(O)C2CCC(C2)C1=O)c1ccc(C(F)(F)F)nc1COC1CCCCC1` (stereo not drawn) [A27-B52], in test [1], the “Pre-emergence action rating, Abutilon” value is recorded as 4; the “Pre-emergence action rating, Amaranthus” value stood at 1; the “Pre-emergence action rating, Chenop.” value came out at 3; the “Pre-emergence action rating, Digitaria” value turned out to be 2. For the same compound, in test [1], the “Pre-emergence action rating, Echino.” value is reported as 3 and the “Pre-emergence action rating, Panicum” value was 1. Further, in test [2], the “Post-emergence action rating, Abutilon” value came to 3; the “Post-emergence action rating, Amaranth” value amounted to 2; the “Post-emergence action rating, Chenop.” value is recorded as 5; the “Post-emergence action rating, Digitaria” value is recorded as 2. Besides, in test [2], the “Post-emergence action rating, Echino.” value is listed as 2; the “Post-emergence action rating, Ipopur.” value came out at 4; the “Post-emergence action rating, Panicum” value is reported as 1; the “Post-emergence action rating, Xanth.” value came out at 2.
Take `CCOC(=O)C1(C)CCC(=O)C(C(=O)c2ccc(C(F)(F)F)nc2COCCOC)=C1O` (stereo not drawn) [A10-B14]: in test [1], the “Pre-emergence action rating, Abutilon” value came to 1; the “Pre-emergence action rating, Amaranthus” value was determined as 1; the “Pre-emergence action rating, Chenop.” value is recorded as 1; the “Pre-emergence action rating, Digitaria” value is on record as 6. Also, in test [1], the “Pre-emergence action rating, Echino.” value is given as 3 and the “Pre-emergence action rating, Panicum” value is listed as 3. Further, in test [2], the “Post-emergence action rating, Abutilon” value is reported as 2; the “Post-emergence action rating, Amaranth” value is on record as 2; the “Post-emergence action rating, Chenop.” value is 1; the “Post-emergence action rating, Digitaria” value came to 2. In test [2], the “Post-emergence action rating, Echino.” value is listed as 3; the “Post-emergence action rating, Ipopur.” value is on record as 2; the “Post-emergence action rating, Panicum” value was 2; the “Post-emergence action rating, Xanth.” value came out at 2.
Take `O=C(C1=C(O)C2CCC(C2)C1=O)c1ccc(C(F)(F)F)nc1COCC1COCO1` (stereo not drawn) [A852-B52]: in test [1], the “Pre-emergence action rating, Abutilon” value is 4; the “Pre-emergence action rating, Amaranthus” value was 1; the “Pre-emergence action rating, Chenop.” value is listed as 2; the “Pre-emergence action rating, Digitaria” value was 1. Also, in test [1], the “Pre-emergence action rating, Echino.” value amounted to 1 and the “Pre-emergence action rating, Panicum” value stood at 1. For the same compound, in test [2], the “Post-emergence action rating, Abutilon” value stood at 3; the “Post-emergence action rating, Amaranth” value is 3; the “Post-emergence action rating, Chenop.” value turned out to be 1; the “Post-emergence action rating, Digitaria” value amounted to 4. Besides, in test [2], the “Post-emergence action rating, Echino.” value stood at 4; the “Post-emergence action rating, Ipopur.” value came to 3; the “Post-emergence action rating, Panicum” value was 3; the “Post-emergence action rating, Xanth.” value is reported as 3.
Consider `O=C(C1=C(O)C2CCC(C2)C1=O)c1ccc(C(F)(F)F)nc1COCCOC1CCCCO1` (stereo not drawn) [A842-B52], for which, in test [1], the “Pre-emergence action rating, Abutilon” value came to 2; the “Pre-emergence action rating, Amaranthus” value amounted to 2; the “Pre-emergence action rating, Chenop.” value is listed as 1; the “Pre-emergence action rating, Digitaria” value is on record as 6. For the same compound, in test [1], the “Pre-emergence action rating, Echino.” value came to 2 and the “Pre-emergence action rating, Panicum” value is listed as 1. In test [2], the “Post-emergence action rating, Abutilon” value is recorded as 3; the “Post-emergence action rating, Amaranth” value is 2; the “Post-emergence action rating, Chenop.” value was 1; the “Post-emergence action rating, Digitaria” value came to 3. Moreover, in test [2], the “Post-emergence action rating, Echino.” value was 5; the “Post-emergence action rating, Ipopur.” value was 3; the “Post-emergence action rating, Panicum” value worked out at 3; the “Post-emergence action rating, Xanth.” value is on record as 3.
`COCCOCc1nc(C(F)(F)F)ccc1C(=O)C1=C(O)CCC(C)(C)C1=O` [A10-B3]: in test [1], the “Pre-emergence action rating, Abutilon” value is given as 1; the “Pre-emergence action rating, Amaranthus” value is given as 1; the “Pre-emergence action rating, Chenop.” value is on record as 1; the “Pre-emergence action rating, Digitaria” value came out at 1. Further, in test [1], the “Pre-emergence action rating, Echino.” value worked out at 1 and the “Pre-emergence action rating, Panicum” value is listed as 1. For the same compound, in test [2], the “Post-emergence action rating, Abutilon” value is given as 1; the “Post-emergence action rating, Amaranth” value was 1; the “Post-emergence action rating, Chenop.” value is listed as 1; the “Post-emergence action rating, Digitaria” value stood at 1. Moreover, in test [2], the “Post-emergence action rating, Echino.” value was 3; the “Post-emergence action rating, Ipopur.” value is 2; the “Post-emergence action rating, Panicum” value is 1; the “Post-emergence action rating, Xanth.” value stood at 1.
On to `O=C(C1=C(O)C2CCC(C2)C1=O)c1ccc(C(F)(F)F)nc1COCCCl` (stereo not drawn) [A850-B52], for which, in test [1], the “Pre-emergence action rating, Abutilon” value came out at 1; the “Pre-emergence action rating, Amaranthus” value amounted to 2; the “Pre-emergence action rating, Chenop.” value is recorded as 1; the “Pre-emergence action rating, Digitaria” value came to 2. Further, in test [1], the “Pre-emergence action rating, Echino.” value worked out at 1 and the “Pre-emergence action rating, Panicum” value is 1. For the same compound, in test [2], the “Post-emergence action rating, Abutilon” value came to 2; the “Post-emergence action rating, Amaranth” value is 2; the “Post-emergence action rating, Chenop.” value turned out to be 1; the “Post-emergence action rating, Digitaria” value stood at 2. Moreover, in test [2], the “Post-emergence action rating, Echino.” value is given as 2; the “Post-emergence action rating, Ipopur.” value was found to be 2; the “Post-emergence action rating, Panicum” value was found to be 2; the “Post-emergence action rating, Xanth.” value was found to be 2.
With `COCc1nc(C(F)(F)F)ccc1C(=O)c1c(C)nn(C)c1O` [A1-C2], in test [1], the “Pre-emergence action rating, Abutilon” value was 4; the “Pre-emergence action rating, Amaranthus” value is 3; the “Pre-emergence action rating, Chenop.” value worked out at 1; the “Pre-emergence action rating, Digitaria” value is listed as 3. For the same compound, in test [1], the “Pre-emergence action rating, Echino.” value is 3 and the “Pre-emergence action rating, Panicum” value amounted to 6. In test [2], the “Post-emergence action rating, Abutilon” value came out at 3; the “Post-emergence action rating, Amaranth” value was found to be 2; the “Post-emergence action rating, Chenop.” value was found to be 4; the “Post-emergence action rating, Digitaria” value came out at 8. Moreover, in test [2], the “Post-emergence action rating, Echino.” value was determined as 4; the “Post-emergence action rating, Ipopur.” value is 3; the “Post-emergence action rating, Panicum” value turned out to be 7; the “Post-emergence action rating, Xanth.” value was determined as 4.
